Laboratory results: patent publication US5204361A, “Method for treating laminitis in equine livestock” (priority 1988, dated 1993)

Key:
[1] = tested on: horses given controlled doses of ground wheat; experiment: Experiment 3: in vivo action of virginiamycin in horses dosed with ground wheat; parameters: species or system horse
Method: These animals were pre-dosed with virginiamycin by feeding 2 kg of a mixture containing: chaff 1225 g, sugar 225 g, water 450 g and `Stafac 20` 100 g. This provided approximately 2 g virginiamycin/d. The sugar was first dissolved in water before adding the `Stafac 20` and mixing it into a uniform suspension. This mixture was then added to the chaff and mixed for 20 minutes. When this feed was not eaten on the second day on which it was offered the animals were dosed with 125 g `Stafac 20`/head (2.5 g virginiamycin/head), via a stomach tube. On the third day of the experiment the animals were given a dose of ground wheat. This provided approximately 6 mg virginiamycin/kg liveweight. The wheat was mixed in a slurry with water and given in two equal amounts with an interval of about 2 hours between doses. The animals were examined and sampled at 8 hour intervals over a period of 48 hours as described for Experiment 1 above. Times were taken from the first dose of wheat.
Eight horses were used for this experiment. Four animals received virginiamycin and 4 animals received the same treatment but without virginiamycin. The animals which received virginiamycin were pre-dosed for two days prior to administration of the wheat slurry by feeding 640 g of a mixture containing lucerne chaff 495 g, sugar 16.5 g, cornflour 8.3 g, water 115 g, `Stafac 500` 4.95 g. This provided approximately 2.48 g virginiamycin/d. This was prepared in the following way. An evenly mixed slurry of the sugar, cornflour, water and `Stafac 500` was prepared and this was added to the lucerne chaff before mixing thoroughly in a cement mixer. The control animals received 640 g of lucerne chaff without any additive. The doses of wheat administered on the third day provided 12 grams of ground wheat/kg liveweight. Again this was given in two equal amounts with an interval between doses. The wheat given to the horses on the virginiamycin treatment contained `Stafac 20` (20/kg wheat). This provided approximately 4.8 mg virginiamycin/kg liveweight. The animals were examined and sampled at 8 hour intervals over a period of 48 hours as described above for Experiment 1.

[2] = tested on: caecal and large colon contents; experiment: Experiment 2 Part 3: in vitro screening at 2 ug/ml in digesta of four horses; type: cell-based, horse; details: for pH / L-lactate: 2 ug antibiotic/ml, 15 mg cornstarch/ml, 20 hour incubation
Method: (§1) Digesta was taken from the caecum and large colon from recently slaughtered animals and was filtered through nylon gauze (approximately 60 micron apertures). The fluid was diluted 1:1 with a buffer solution described by Bales et al. (1976) and incubated with wheat "corn starch" (with or without antibiotics) at 37° for 16 to 20 hours. Aliquots of digesta diluted with buffer (50 ml) were added to 100 ml conical flasks. The flasks were flushed with carbon dioxide before being sealed with a tightly fitting rubber cap. A 21 gauge needle was inserted through the rubber seal in order to allow gas to escape during the fermentation. On removal from the incubator sub-samples were immediately taken to measure L-lactic acid concentration and pH. For each treatment or level of antibiotic three replicate incubation flasks were used.
All four of the antibiotics, listed above, were incubated as previously described to provide 2 ug antibiotic and 15 mg cornstarch per ml incubation mixture. There was one flask per test and each antibiotic was incubated in digesta from both the caecum and the large colon taken from each of 4 animals. Samples of incubation fluid were taken following a 20 hour incubation and were analysed for L-lactate and pH.

[3] = tested on: caecal/large colon digesta; experiment: Experiment 2 Part 5: efficacy of tylosin relative to virginiamycin, digesta incubated with glucose; type: cell-based, horse; details: antibiotic 1.00 μg/ml, 37°, 20 hours, mean
[4] = tested on: caecal and large colon digesta of horses; experiment: Experiment 2 Part 4: fresh digesta of horses fed pelleted diet with virginiamycin; type: in vivo, horse; details: for pH, fresh digesta / L-lactate, fresh digesta / Total VFA, fresh digesta / % Acetate, fresh digesta / % Butyrate, fresh digesta / % Iso-valerate, fresh digesta / % Propionate, fresh digesta / % Valerate, fresh digesta: n = 5, mean; for % Acetate, fresh digesta / % Butyrate, fresh digesta / % Iso-valerate, fresh digesta / % Propionate, fresh digesta / % Valerate, fresh digesta: molar percentage, feed with virginiamycin
Method: A total of ten horses were used for this experiment. Five horses were offered 5 kg of a pelleted mixture (ground wheat 92.5%, ground lucerne chaff 5% and `Stafac 20` 2.5% to supply approximately 2.5 g virginiamycin. A further 5 horses were offered the same feed but without virginiamycin. Samples of caecal and large colon digesta were taken for analysis of pH, VFA, virginiamycin and L-lactate. Samples were also prepared as described above with buffer solution and incubated (1 flask/sample) with cornstarch (15 mg/ml diluted digesta). Following 20 hours incubation samples were taken for analysis of L-lactate and pH.

[5] = tested on: mixed caecal/large colon digesta; experiment: Experiment 2 Part 1: in vitro fermentation of digesta with cornstarch, avoparcin, virginiamycin, flavomycin 2-32 ug/ml; type: cell-based, horse; parameters: Lactate / Total VFA: unit not given here; details: for pH / Acet:Prop / Lactate / Total VFA: mean
Method: as §1
A range of concentrations of cornstarch providing: 0, 5, 10, 15 and 20 mg/ml diluted digesta (i.e. from 0 to 1 g cornstarch/conical flask) were tested to determine the amount required to produce a pattern of fermentation with high levels of lactic acid. Flasks were also prepared with cornstarch mixed with antibiotic premixes to provide 15 mg cornstarch/ml incubation mixture and 0, 2, 4, 8, 16 and 32 ug of avoparcin, virginiamycin or flavomycin per ml incubation mixture. After approximately 16 hour incubation at 37° samples were taken to measure lactic acid, VFA and pH.

[6] = Caecum, feed with virginiamycin approx 14 hours before slaughter
[7] = Colon, feed with virginiamycin approx 14 hours before slaughter
[8] = antibiotic 2 μg/ml, cornstarch 15 mg/ml, approx 16 hour incubation
[9] = antibiotic 4 μg/ml, cornstarch 15 mg/ml, approx 16 hour incubation
[10] = antibiotic 8 μg/ml, cornstarch 15 mg/ml, approx 16 hour incubation
[11] = antibiotic 16 μg/ml, cornstarch 15 mg/ml, approx 16 hour incubation
[12] = antibiotic 32 μg/ml, cornstarch 15 mg/ml, approx 16 hour incubation

## virginiamycin
[1]; 5 animals dosed with virginiamycin, ground wheat, 48 hours, 3 of 4 controls Obel grade 2
  signs of lameness: none showed any signs of lameness
[1]; 48 hours after wheat slurry, FIG. 4(b)
  faecal pH: no significant change
[1]; Part 1, 2 horses, approx 6 mg virginiamycin/kg liveweight, build up of gas in the caecum
  death after wheat slurry with virginiamycin: one died after 16 hours
[1]; after wheat slurry
  parameters associated with acidosis (blood bicarbonate and pH, and faecal pH): within normal limits
[1]; at 8 and 16 hours after wheat, FIG. 3
  blood L-lactate versus control: significantly higher
[1]; at 16 hours after wheat, FIG. 3
  blood D-lactate: only a minor increase
[1]; by 40 hours after wheat, FIG. 3
  blood L-lactate versus control: higher (p<0.05) in the control animals
[1]; in vivo
  blood D-lactate level: maintained blood D-lactate at a low level
  development of laminitis following excessive carbohydrate intake: protected horses against the development of laminitis
  gas produced during the initial rapid fermentation of the carbohydrate: more gas was produced
  heart rate versus control horses: higher than that of the control horses
  ill effects of the dose, second animal: no ill effects
[1]; virginiamycin prior to and in conjunction with the wheat slurry
  reduction in lameness versus control: significant (p<0.05) reduction
[2]; Horse 1
  pH: 5.40
[2]; Horse 1, mean of caecum and large colon
  L-lactate: 0.3 mmol/L
[2]; Horse 2
  pH: 4.94
[2]; Horse 2, mean of caecum and large colon
  L-lactate: 34.1 mmol/L
[2]; Horse 3
  pH: 5.17
[2]; Horse 3, mean of caecum and large colon
  L-lactate: 7.6 mmol/L
[2]; Horse 4
  pH: 5.27
[2]; Horse 4, mean of caecum and large colon
  L-lactate: 12.3 mmol/L
[2]; Mean of 4 horses
  L-lactate: 13.6 mmol/L
  pH: 5.19
[2]; all horses, 2 ug/ml, p,0.01
  pH of the incubation fluid relative to unmedicated control: significant increase
[2]; all horses, 2 ug/ml, p<0.001
  L-lactate concentration relative to unmedicated control: significant reduction
[3]
  L-lactate: 9.3 mmol/L
[4]; Caecum, feed with approx 2.5 g virginiamycin approx 14 hours before slaughter
  pH, fresh digesta: 6.2
[4]; [6]
  L-lactate, fresh digesta: 10.3 mmol/L
  Total VFA, fresh digesta: 76.1 mmol/L
[4]; Caecum
  % Acetate, fresh digesta: 50.3%
  % Butyrate, fresh digesta: 3.2%
  % Iso-valerate, fresh digesta: 0.0%
  % Propionate, fresh digesta: 46.5%
  % Valerate, fresh digesta: 0.5%
[4]; [7]
  L-lactate, fresh digesta: 10.2 mmol/L
  Total VFA, fresh digesta: 118.7 mmol/L
  pH, fresh digesta: 6.0
[4]; Colon
  % Acetate, fresh digesta: 52.1%
  % Butyrate, fresh digesta: 3.6%
  % Iso-valerate, fresh digesta: 1.5%
  % Propionate, fresh digesta: 44.3%
  % Valerate, fresh digesta: 0.2%
[4]; fresh digesta
  molar percentage of propionate versus control animals: more than twice
  molar percentages of acetate, butyrate, isovalerate and valerate versus control animals: reduced
  pH of the digesta in the caecum or large colon versus control animals: no significant effect
[4]; fresh digesta, p<0.001
  total concentration of VFA versus control animals: lower total concentration of VFA
[4]; fresh digesta, p<0.05
  concentration of L-lactate in the caecal and large colon digesta versus control animals: higher
[5]; Experiment 2 screening programme as a whole
  control of lactic acid build up: consistent and effective control
[5]; antibiotic 2 μg/ml, cornstarch 15 mg/ml, approx 16 hour incubation at 37°
  pH: 6.57
[5]; [8]
  Acet:Prop: 2.9
  Lactate: 0.2
  Total VFA: 93.2
[5]; [9]
  Acet:Prop: 3.1
  Lactate: 0.2
  Total VFA: 80.8
  pH: 6.63
[5]; [10]
  Acet:Prop: 3.2
  Lactate: 0.2
  Total VFA: 79.7
  pH: 6.66
[5]; [11]
  Acet:Prop: 3.8
  Lactate: 0.0
  Total VFA: 71.3
  pH: 6.64
[5]; [12]
  Acet:Prop: 3.7
  Lactate: 0.1
  Total VFA: 87.1
  pH: 6.66
[5]; at concentrations as low as 2 g/ml, cornstarch 15 mg/ml
  control of lactic acid build-up: total control
